Reference: PubChem BioAssay (NCI)
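In this assay, cells in 96-well plates receive the compound at five concentrations for 48 hours. Endpoints are linearly interpolated between the surrounding concentrations. GI50: concentration for 50% inhibition of growth. TGI: concentration producing complete growth inhibition.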

Tests used:
Assay in all cases: NCI anticancer screen, dose series, 48 h
NCI-H522 lung = test system: NCI-H522 lung
HOP-92 NSCLC = test system: HOP-92 NSCLC
LOX IMVI melanoma = test system: LOX IMVI melanoma
DMS 273 small cell lung = test system: DMS 273 small cell lung
KM12 colon = test system: KM12 colon
HCT-15 colon = test system: HCT-15 colon
SK-OV-3 ovarian = test system: SK-OV-3 ovarian
SR leukemia = test system: SR leukemia
BT-549 breast = test system: BT-549 breast
DLD-1 colon = test system: DLD-1 colon

COc1ccc(-c2cc(=O)c3ccccc3o2)cc1N
TGI (NCI-H522 lung): 77.6 µM
TGI (HOP-92 NSCLC): > 100 µM
TGI (LOX IMVI melanoma): > 100 µM
TGI (DMS 273 small cell lung): > 100 µM
TGI (KM12 colon): > 100 µM
TGI (HCT-15 colon): > 100 µM
TGI (SK-OV-3 ovarian): > 100 µM

CNC(=O)c1ccc(N2C(=S)N(c3ccc(C#N)c(C(F)(F)F)c3)C(=O)C2(C)C)cc1F
GI50 (NCI-H522 lung): 50.9 µM
TGI (NCI-H522 lung): > 100 µM
GI50 (SR leukemia): 17.9 µM
TGI (SR leukemia): > 100 µM
GI50 (HOP-92 NSCLC): 16.5 µM
TGI (HOP-92 NSCLC): > 48.9 µM
GI50 (LOX IMVI melanoma): 36.5 µM
TGI (LOX IMVI melanoma): > 62.2 µM
GI50 (KM12 colon): 48.1 µM
TGI (KM12 colon): > 91.1 µM
GI50 (HCT-15 colon): 33.2 µM
TGI (HCT-15 colon): > 89.3 µM
GI50 (BT-549 breast): 22.3 µM
TGI (BT-549 breast): > 73.4 µM
GI50 (SK-OV-3 ovarian): > 51 µM
TGI (SK-OV-3 ovarian): > 93.1 µM

C=C(C)[C@@H]1CC[C@]2(C(=O)O)CC[C@]3(C)[C@H](CC[C@@H]4[C@@]5(C)CCC(NC(=O)c6cccc(OC(C)=O)c6OC(C)=O)C(C)(C)[C@@H]5CC[C@]43C)[C@@H]12 (stereo not given in full)
GI50 (NCI-H522 lung): 0.371 µM
TGI (NCI-H522 lung): 1.62 µM
GI50 (SR leukemia): 0.568 µM
TGI (SR leukemia): 3.14 µM
GI50 (HOP-92 NSCLC): 0.439 µM
TGI (HOP-92 NSCLC): 2.25 µM
GI50 (LOX IMVI melanoma): 0.488 µM
TGI (LOX IMVI melanoma): 1.74 µM
GI50 (KM12 colon): 0.651 µM
TGI (KM12 colon): 3.46 µM
GI50 (HCT-15 colon): 0.418 µM
TGI (HCT-15 colon): 3.73 µM
GI50 (BT-549 breast): 1.18 µM
TGI (BT-549 breast): 3.67 µM
GI50 (SK-OV-3 ovarian): 1.89 µM
TGI (SK-OV-3 ovarian): > 20.4 µM

CCN(Cc1ccccc1)c1ccc(CO)c(Cl)c1
GI50 (NCI-H522 lung): 17.4 µM
TGI (NCI-H522 lung): 63.4 µM
GI50 (SR leukemia): > 52.1 µM
TGI (SR leukemia): > 100 µM
GI50 (HOP-92 NSCLC): 1.67 µM
TGI (HOP-92 NSCLC): 15.3 µM
GI50 (LOX IMVI melanoma): 23.8 µM
TGI (LOX IMVI melanoma): > 100 µM
GI50 (KM12 colon): 20.5 µM
TGI (KM12 colon): 63.3 µM
GI50 (HCT-15 colon): 13.8 µM
TGI (HCT-15 colon): > 100 µM
GI50 (BT-549 breast): 14.1 µM
TGI (BT-549 breast): 44.6 µM
GI50 (SK-OV-3 ovarian): 5.78 µM
TGI (SK-OV-3 ovarian): 35.6 µM

COc1cccc(/C=C/[N+](=O)[O-])c1
GI50 (NCI-H522 lung): 11.1 µM
TGI (NCI-H522 lung): 23.5 µM
GI50 (SR leukemia): 1.64 µM
TGI (SR leukemia): 5.18 µM
GI50 (HOP-92 NSCLC): 15.9 µM
TGI (HOP-92 NSCLC): 34.6 µM
GI50 (LOX IMVI melanoma): 1.66 µM
TGI (LOX IMVI melanoma): 3.12 µM
GI50 (KM12 colon): 2.54 µM
TGI (KM12 colon): 7.35 µM
GI50 (HCT-15 colon): 2.17 µM
TGI (HCT-15 colon): 6.18 µM
GI50 (BT-549 breast): 1.86 µM
TGI (BT-549 breast): 3.99 µM
GI50 (SK-OV-3 ovarian): 11.5 µM
TGI (SK-OV-3 ovarian): 23.6 µM

O=C(c1ccccc1)c1c(-c2ccccc2)sc2nc3ccccc3nc12
TGI (NCI-H522 lung): > 100 µM
TGI (HOP-92 NSCLC): > 100 µM
TGI (DMS 273 small cell lung): > 100 µM
TGI (KM12 colon): > 100 µM
TGI (HCT-15 colon): > 100 µM
TGI (SK-OV-3 ovarian): > 100 µM

CC(C)C[C@H](NC(=O)Cn1ccc(NCc2ccccc2)cc1=O)B(O)O
GI50 (NCI-H522 lung): 0.691 µM
TGI (NCI-H522 lung): 3.08 µM
GI50 (SR leukemia): 0.281 µM
TGI (SR leukemia): 14.5 µM
GI50 (HOP-92 NSCLC): 2.39 µM
TGI (HOP-92 NSCLC): 8.35 µM
GI50 (LOX IMVI melanoma): 0.606 µM
TGI (LOX IMVI melanoma): 2.31 µM
GI50 (KM12 colon): 3.62 µM
TGI (KM12 colon): 17.1 µM
GI50 (HCT-15 colon): 2.62 µM
TGI (HCT-15 colon): > 41.6 µM
GI50 (BT-549 breast): 0.431 µM
TGI (BT-549 breast): 2.59 µM
GI50 (SK-OV-3 ovarian): 13.7 µM
TGI (SK-OV-3 ovarian): > 100 µM

COc1cc2ncn(-c3cc(O[C@@H](C)c4ccccc4Cl)c(C(N)=O)s3)c2cc1OC
GI50 (NCI-H522 lung): 0.434 µM
TGI (NCI-H522 lung): 6.51 µM
GI50 (SR leukemia): 0.701 µM
TGI (SR leukemia): > 18.8 µM
GI50 (HOP-92 NSCLC): 4.67 µM
TGI (HOP-92 NSCLC): > 25 µM
GI50 (LOX IMVI melanoma): 1.05 µM
TGI (LOX IMVI melanoma): > 25 µM
GI50 (KM12 colon): 0.559 µM
TGI (KM12 colon): > 25 µM
GI50 (HCT-15 colon): 0.743 µM
TGI (HCT-15 colon): > 25 µM
GI50 (BT-549 breast): 2.94 µM
TGI (BT-549 breast): > 24.1 µM
GI50 (SK-OV-3 ovarian): 0.803 µM
TGI (SK-OV-3 ovarian): > 25 µM

O=c1cc(N2CCN(CCCCCOc3cc(O)c4c(=O)cc(-c5ccccc5)oc4c3)CC2)c2ccccc2o1
GI50 (NCI-H522 lung): > 100 µM
TGI (NCI-H522 lung): > 100 µM
GI50 (SR leukemia): 42.9 µM
TGI (SR leukemia): > 100 µM
GI50 (HOP-92 NSCLC): 26.1 µM
TGI (HOP-92 NSCLC): > 100 µM
GI50 (LOX IMVI melanoma): 51.2 µM
TGI (LOX IMVI melanoma): > 100 µM
GI50 (KM12 colon): 77.8 µM
TGI (KM12 colon): > 100 µM
GI50 (HCT-15 colon): > 100 µM
TGI (HCT-15 colon): > 100 µM
GI50 (BT-549 breast): 57.9 µM
TGI (BT-549 breast): > 100 µM
GI50 (SK-OV-3 ovarian): > 100 µM
TGI (SK-OV-3 ovarian): > 100 µM

CC1=C(C(=O)Nc2ccc(Cl)c(Cl)c2)C(c2cccc(Cl)c2)NC(=O)N1 (stereo not given)
GI50 (NCI-H522 lung): 9.53 µM
TGI (NCI-H522 lung): 18.5 µM
GI50 (SR leukemia): 22.3 µM
TGI (SR leukemia): > 50 µM
GI50 (HOP-92 NSCLC): 18.3 µM
TGI (HOP-92 NSCLC): > 28.7 µM
GI50 (LOX IMVI melanoma): 7.66 µM
TGI (LOX IMVI melanoma): 16.2 µM
GI50 (KM12 colon): 0.239 µM
TGI (KM12 colon): 2.48 µM
GI50 (HCT-15 colon): 9.06 µM
TGI (HCT-15 colon): 19.2 µM
GI50 (BT-549 breast): 6.42 µM
TGI (BT-549 breast): 13.4 µM
GI50 (SK-OV-3 ovarian): 10.6 µM
TGI (SK-OV-3 ovarian): 20.7 µM

COc1ccc(-c2cc(-c3cccn3C)c(C#N)c(=O)[nH]2)cc1OC
GI50 (NCI-H522 lung): > 100 µM
TGI (NCI-H522 lung): > 100 µM
GI50 (SR leukemia): 0.483 µM
TGI (SR leukemia): > 100 µM
GI50 (HOP-92 NSCLC): 0.0508 µM
TGI (HOP-92 NSCLC): 9.8 µM
GI50 (LOX IMVI melanoma): > 100 µM
TGI (LOX IMVI melanoma): > 100 µM
GI50 (KM12 colon): > 100 µM
TGI (KM12 colon): > 100 µM
GI50 (HCT-15 colon): > 100 µM
TGI (HCT-15 colon): > 100 µM
GI50 (BT-549 breast): > 100 µM
TGI (BT-549 breast): > 100 µM
GI50 (SK-OV-3 ovarian): > 100 µM
TGI (SK-OV-3 ovarian): > 100 µM

N#Cc1ccc2c(c1)C(=O)c1c-2n(CCCCl)c(=O)c2cc([N+](=O)[O-])ccc12
GI50 (NCI-H522 lung): 3.07 µM
TGI (NCI-H522 lung): 24.3 µM
GI50 (SR leukemia): 0.178 µM
TGI (SR leukemia): 1.7 µM
GI50 (HOP-92 NSCLC): 5.06 µM
TGI (HOP-92 NSCLC): 23.1 µM
GI50 (LOX IMVI melanoma): 2.28 µM
TGI (LOX IMVI melanoma): 14.8 µM
GI50 (KM12 colon): > 100 µM
TGI (KM12 colon): > 100 µM
GI50 (HCT-15 colon): 58.4 µM
TGI (HCT-15 colon): > 100 µM
GI50 (BT-549 breast): 2.28 µM
TGI (BT-549 breast): 23.5 µM
GI50 (SK-OV-3 ovarian): 5.29 µM
TGI (SK-OV-3 ovarian): 24.7 µM

C=C1C(=O)O[C@H]2[C@H]1CC/C(COC(=O)c1cc3ccccc3o1)=C\CC[C@@]1(C)O[C@@H]21
GI50 (NCI-H522 lung): 0.68 µM
TGI (NCI-H522 lung): 2.39 µM
GI50 (SR leukemia): 1.15 µM
TGI (SR leukemia): 5.33 µM
GI50 (HOP-92 NSCLC): 1.44 µM
TGI (HOP-92 NSCLC): 3.1 µM
GI50 (LOX IMVI melanoma): 1.42 µM
TGI (LOX IMVI melanoma): 2.81 µM
GI50 (KM12 colon): 2.02 µM
TGI (KM12 colon): 4.61 µM
GI50 (HCT-15 colon): 1.07 µM
TGI (HCT-15 colon): 2.86 µM
GI50 (BT-549 breast): 1.48 µM
TGI (BT-549 breast): 3.29 µM
GI50 (SK-OV-3 ovarian): 16.7 µM
TGI (SK-OV-3 ovarian): 32.7 µM

O=c1ccs[nH]1
TGI (NCI-H522 lung): 1.75 µM
TGI (SR leukemia): 16.4 µM
TGI (HOP-92 NSCLC): 32.2 µM
TGI (LOX IMVI melanoma): 18.4 µM
TGI (KM12 colon): 62.1 µM
TGI (HCT-15 colon): 33.8 µM
TGI (BT-549 breast): 40.3 µM
TGI (SK-OV-3 ovarian): 72.5 µM

Cc1ccc2c(-c3ccnc(Nc4ccccc4)n3)c(-c3ccc(F)cc3)nn2n1
GI50 (NCI-H522 lung): 4.34 µM
TGI (NCI-H522 lung): 13.9 µM
GI50 (SR leukemia): 11.7 µM
TGI (SR leukemia): > 25 µM
GI50 (HOP-92 NSCLC): 3.33 µM
TGI (HOP-92 NSCLC): > 25 µM
GI50 (LOX IMVI melanoma): 5.92 µM
TGI (LOX IMVI melanoma): > 25 µM
GI50 (KM12 colon): 7.05 µM
TGI (KM12 colon): > 25 µM
GI50 (HCT-15 colon): 5.58 µM
TGI (HCT-15 colon): > 25 µM
GI50 (BT-549 breast): 10.7 µM
TGI (BT-549 breast): > 25 µM
GI50 (SK-OV-3 ovarian): 1.39 µM
TGI (SK-OV-3 ovarian): > 25 µM

O=C(O)Cc1cc(=O)[nH]c2c1/C(=N/O)CCC2
TGI (NCI-H522 lung): > 100 µM
TGI (SR leukemia): > 100 µM
TGI (HOP-92 NSCLC): > 100 µM
TGI (DLD-1 colon): > 100 µM
TGI (KM12 colon): > 100 µM
TGI (HCT-15 colon): > 100 µM
TGI (SK-OV-3 ovarian): > 100 µM
